These results are taken from patent publication US7951813B2, “Quinazolinone derivatives as ALDH-2 inhibitors” (Gilead Sciences, Inc., priority 2007, dated 2011).

Entries after “also recorded” stand apart in the source; their conditions may differ.

For one assay, the target named is T1, hALDH2 (UniProt P05091).
T1 sequence (P05091 1-517): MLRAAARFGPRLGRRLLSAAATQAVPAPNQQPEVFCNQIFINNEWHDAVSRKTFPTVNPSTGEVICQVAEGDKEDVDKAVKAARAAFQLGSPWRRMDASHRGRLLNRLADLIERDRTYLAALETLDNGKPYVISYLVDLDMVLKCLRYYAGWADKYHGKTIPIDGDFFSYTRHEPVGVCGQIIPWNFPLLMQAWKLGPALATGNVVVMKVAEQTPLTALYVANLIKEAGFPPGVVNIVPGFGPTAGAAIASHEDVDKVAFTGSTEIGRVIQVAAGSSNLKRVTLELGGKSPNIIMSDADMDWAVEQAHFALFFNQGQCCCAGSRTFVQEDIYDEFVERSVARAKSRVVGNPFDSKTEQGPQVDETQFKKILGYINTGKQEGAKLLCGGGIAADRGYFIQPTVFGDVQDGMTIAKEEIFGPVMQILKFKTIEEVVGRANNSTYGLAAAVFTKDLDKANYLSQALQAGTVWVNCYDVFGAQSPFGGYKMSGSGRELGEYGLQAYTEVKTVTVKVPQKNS
Nature of the assay: ALDH-2 assay (inhibition of hALDH2). Format: biochemical, human.

In the next assay the target is T2, hMAO-A (UniProt P21397).
T2 sequence (P21397 1-527): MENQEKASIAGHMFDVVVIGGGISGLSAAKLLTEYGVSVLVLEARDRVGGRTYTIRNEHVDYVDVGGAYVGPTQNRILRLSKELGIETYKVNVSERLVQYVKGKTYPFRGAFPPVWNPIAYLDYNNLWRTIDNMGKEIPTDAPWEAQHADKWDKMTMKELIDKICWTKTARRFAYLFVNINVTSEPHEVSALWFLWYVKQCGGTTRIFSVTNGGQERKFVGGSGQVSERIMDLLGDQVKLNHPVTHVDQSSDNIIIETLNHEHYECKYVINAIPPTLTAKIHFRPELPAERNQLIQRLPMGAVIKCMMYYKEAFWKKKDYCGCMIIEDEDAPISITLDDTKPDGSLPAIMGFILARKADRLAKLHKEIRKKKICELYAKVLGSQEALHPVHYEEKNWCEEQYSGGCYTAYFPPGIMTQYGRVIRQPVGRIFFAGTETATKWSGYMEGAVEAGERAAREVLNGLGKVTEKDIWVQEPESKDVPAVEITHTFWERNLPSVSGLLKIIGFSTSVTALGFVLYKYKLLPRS
Nature of the assay: MAO assay (inhibition of hMAO-A). The assay is classed as biochemical, human. The note with it: read-out: IC50 hMAO-A (No inhibition up to 10 μM).

A further assay addresses T3, hMAO-B (Homo sapiens, UniProt P27338).
T3 sequence (P27338 2-520 limits assumed): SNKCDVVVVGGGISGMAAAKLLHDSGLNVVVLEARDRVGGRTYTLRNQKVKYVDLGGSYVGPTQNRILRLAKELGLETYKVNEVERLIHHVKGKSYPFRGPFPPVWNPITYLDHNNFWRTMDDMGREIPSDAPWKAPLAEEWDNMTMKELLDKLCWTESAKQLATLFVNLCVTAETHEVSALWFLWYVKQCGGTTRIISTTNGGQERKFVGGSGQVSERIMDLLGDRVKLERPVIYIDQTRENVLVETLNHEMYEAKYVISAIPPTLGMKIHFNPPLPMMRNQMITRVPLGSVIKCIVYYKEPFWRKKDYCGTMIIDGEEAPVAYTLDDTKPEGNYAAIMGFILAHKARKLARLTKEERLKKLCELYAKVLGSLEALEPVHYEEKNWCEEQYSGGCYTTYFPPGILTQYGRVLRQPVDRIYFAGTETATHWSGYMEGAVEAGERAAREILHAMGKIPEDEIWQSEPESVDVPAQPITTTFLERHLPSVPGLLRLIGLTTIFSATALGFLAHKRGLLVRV
Nature of the assay: MAO assay (inhibition of hMAO-B). The assay is classed as biochemical. The note with it: read-out: IC50 hMAO-B (No inhibition up to 10 μM).

Assay [1] addresses T4, human mitochondrial aldehyde dehydrogenase (ALDH-2) (Homo sapiens, UniProt P05091).
T4 sequence (P05091 18-517): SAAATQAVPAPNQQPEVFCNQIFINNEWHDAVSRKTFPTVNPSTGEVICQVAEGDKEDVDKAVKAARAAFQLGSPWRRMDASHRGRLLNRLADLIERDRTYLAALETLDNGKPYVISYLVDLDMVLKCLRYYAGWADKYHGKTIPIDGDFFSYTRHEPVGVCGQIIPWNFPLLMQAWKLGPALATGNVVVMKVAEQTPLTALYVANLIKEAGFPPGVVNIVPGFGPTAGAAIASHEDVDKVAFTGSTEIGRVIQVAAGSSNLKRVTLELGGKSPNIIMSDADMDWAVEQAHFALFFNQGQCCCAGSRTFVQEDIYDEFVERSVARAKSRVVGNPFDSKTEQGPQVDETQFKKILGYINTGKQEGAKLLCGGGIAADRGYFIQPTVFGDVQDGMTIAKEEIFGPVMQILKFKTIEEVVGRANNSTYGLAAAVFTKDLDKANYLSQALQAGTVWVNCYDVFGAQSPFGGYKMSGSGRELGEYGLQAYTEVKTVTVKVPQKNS
The note with it: background statement, U.S. Pat. Nos. 5,624,910 and 6,121,010; cited from earlier work.

The next assay has as its system Syrian golden hamsters. The note with it: background statement, Keung and Vallee; U.S. Pat. Nos. 5,624,910 and 6,121,010; cited from earlier work.

The IC50 is the concentration that gives 50% inhibition. `O=C(O)c1cccc(COc2ccc3c(=O)n(-c4ccc(O)cc4)cnc3c2)c1` [Example 3A, 3-{[3-(4-hydroxyphenyl)-4-oxo-3-hydroquinazolin-7-yloxy]methyl}benzoic acid]: the IC50 is 0.136 µM against hALDH2, greater than 10 µM on hMAO-A and greater than 10 µM at hMAO-B.

`O=c1c2ccc(OCc3noc(-c4cc(C(F)(F)F)ccc4C(F)(F)F)n3)cc2ncn1-c1ccc(O)cc1` [7-({5-[2,5-bis(trifluoromethyl)phenyl](1,2,4-oxadiazol-3-yl)}methoxy)-3-(4-hydroxyphenyl)-3-hydroquinazolin-4-one]: the IC50 against hALDH2 was 0.312 µM; at hMAO-A it was greater than 10 µM; at hMAO-B, greater than 10 µM.

`O=c1c2ccc(OCc3noc(-c4ccccc4)n3)cc2ncn1-c1ccc(O)cc1` [3-(4-hydroxyphenyl)-7-[(5-phenyl(1,2,4-oxadiazol-3-yl))methoxy]-3-hydroquinazolin-4-one]: the 50% inhibitory concentration (IC50) against hALDH2 was 0.107 µM; on hMAO-A it was greater than 10 µM; on hMAO-B, greater than 10 µM.

Regarding `N#Cc1cccc(COc2ccc3c(=O)n(-c4ccc(O)cc4)cnc3c2)c1` [3-{[3-(4-hydroxyphenyl)-4-oxo-3-hydroquinazolin-7-yloxy]methyl} benzenecarbonitrile], the values for the IC50 at hALDH2, at hMAO-A and at hMAO-B were 0.196 µM, greater than 10 µM and greater than 10 µM, respectively.

Take `O=c1c(-c2ccc(O)cc2)coc2cc(O[C@@H]3O[C@H](CO)[C@@H](O)[C@H](O)[C@H]3O)ccc12` [Daidzin, daidzin]: the “inhibition of human mitochondrial ALDH-2” value in assay [1] was “potent and selective inhibitors”.

`O=c1c(-c2ccc(O)cc2)coc2cc(O)ccc12` [daidzein]: the “suppression of ethanol intake” value with Syrian golden hamsters is listed as “effective in suppressing ethanol intake; also recorded: effective in suppressing ethanol uptake”.

Compound `N#Cc1cccc(-c2nc(COc3ccc4c(=O)n(-c5ccc(O)cc5)cnc4c3)no2)c1` [3-(3-{[3-(4-hydroxyphenyl)-4-oxo-3-hydroquinazolin-7-yloxy]methyl}-1,2,4-oxadiazol-5-yl)benzenecarbonitrile] had a hALDH2 % inhibition at hALDH2 (at 1 μM) of 25% inhibition at 1 μM. Besides, the 50% inhibitory concentration (IC50) on hMAO-A and at hMAO-B was greater than 10 µM in each case.

With `COc1ccccc1-c1nc(COc2ccc3c(=O)n(-c4ccc(O)cc4)cnc3c2)no1` [7-({5-[2-methoxyphenyl](1,2,4-oxadiazol-3-yl)}methoxy)-3-(4-hydroxyphenyl)-3-hydroquinazolin-4-one], the IC50 was 0.09 µM on hALDH2, greater than 10 µM on hMAO-A and greater than 10 µM on hMAO-B.

On to `O=c1c2ccc(OCc3noc(-c4cc(F)cc(C(F)(F)F)c4)n3)cc2ncn1-c1ccc(O)cc1` [7-({5-[5-fluoro-3-(trifluoromethyl)phenyl](1,2,4-oxadiazol-3-yl)}methoxy)-3-(4-hydroxyphenyl)-3-hydroquinazolin-4-one], for which the IC50 is 0.07 µM on hALDH2, greater than 10 µM on hMAO-A and greater than 10 µM at hMAO-B.

On to `O=c1c2ccc(OCc3noc(-c4cc(C(F)(F)F)cc(C(F)(F)F)c4)n3)cc2ncn1-c1ccc(O)cc1` [7-({5-[3,5-bis(trifluoromethyl)phenyl](1,2,4-oxadiazol-3-yl)}methoxy)-3-(4-hydroxyphenyl)-3-hydroquinazolin-4-one], for which the IC50 against hALDH2 is 0.07 µM; on hMAO-A, greater than 10 µM; at hMAO-B, greater than 10 µM.

For `NC(=O)c1cccc(COc2ccc3c(=O)n(-c4ccc(O)cc4)cnc3c2)c1` [3-{[3-(4-hydroxyphenyl)-4-oxo-3-hydroquinazolin-7-yloxy]methyl}benzamide], the IC50 on hALDH2 was 0.021 µM; on hMAO-A it was greater than 10 µM; at hMAO-B it was greater than 10 µM.

Consider `CC(C)OC(=O)c1cccc(COc2ccc3c(=O)n(-c4ccc(O)cc4)cnc3c2)c1` [methylethyl 3-{[3-(4-hydroxyphenyl)-4-oxo-3-hydroquinazolin-7-yloxy]methyl} benzoate], for which the IC50 was 0.095 µM against hALDH2, greater than 10 µM at hMAO-A and greater than 10 µM on hMAO-B.

On to `COc1ccc(-c2nc(COc3ccc4c(=O)n(-c5ccc(O)cc5)cnc4c3)no2)cc1C(F)(F)F` [3-(4-hydroxyphenyl)-7-({5-[4-methoxy-3-(trifluoromethyl)phenyl](1,2,4-oxadiazol-3-yl)}methoxy)-3-hydroquinazolin-4-one], for which the IC50 on hALDH2 was 0.1 µM; on hMAO-A, greater than 10 µM; on hMAO-B, greater than 10 µM.

As to `O=c1c2ccc(OCc3noc(-c4cccc(C(F)(F)F)c4)n3)cc2ncn1-c1ccc(O)cc1` [3-(4-hydroxyphenyl)-7-({5-[3-(trifluoromethyl)phenyl](1,2,4-oxadiazol-3-yl)}methoxy)-3-hydroquinazolin-4-one], the IC50 at hALDH2 was 0.03 µM; on hMAO-A, greater than 10 µM; at hMAO-B, greater than 10 µM.

With `C=CCOC(=O)c1cccc(COc2ccc3c(=O)n(-c4ccc(O)cc4)cnc3c2)c1` [Example 2A, prop-2-enyl 3-{[3-(4-hydroxyphenyl)-4-oxo-3-hydroquinazolin-7-yloxy]methyl} benzoate], the IC50 was 0.196 µM against hALDH2, greater than 10 µM on hMAO-A and greater than 10 µM at hMAO-B.
